pKd: −log10 of the molar value. Like-named read-outs stand apart in the source and are kept apart here.
Columns and labels:
bovine FBP = bovine FBP (Bos taurus, UniProt P02702); assay: Folate binding constant, procedure of Dunn and Foster
Description: As noted above, the drug products which can be employed in the present invention include other GAR-transformylase or TS inhibitors which are capable of binding to folate binding protein. Folic acid itself has a binding constant (ng/ml) of 1.8, and lometrexol has a binding constant of 9.7 to bovine FBP. Any GAR-transformylase or TS inhibitor that binds at less than about 500 ng/ml can be utilized in the method of this invention. The folate binding constant for drug products can be readily determined by the general procedure of Dunn and Foster, Clin. Chem., 19 (10), 1101-1105 (1973).

[1] = test system: C3H strain of mammary adenocarcinoma; assay: Antitumor activity against implanted C3H mammary adenocarcinoma in mice; type: in vivo
Description: (§1) In one such test, mice are inoculated with the C3H strain of mammary adenocarcinoma by inserting a 2 mm by 2 mm section of tumor into the axillary region of the mice by trocar. In all experiments, lometrexol was administered intraperitoneally once a day for five consecutive days, starting on the day following tumor implantation. Ten animals were used at each dosage level. Antitumor activity was assessed on day ten by measuring the length and width of the tumor growth using vernier calipers, and the activity was expressed as a percent inhibition of tumor growth.

[2] = test system: nasalpharyngeal carcinoma; conditions: one subject with nasalpharyngeal carcinoma, folic acid 0.5 to 1.0 mg/day, after the 12 months of therapy
C3H Mice = assay: Toxicity measured as death of tumor-bearing C3H mice; type: in vivo
Description: as §1

[3] = read-out: Binding Constant, folate binding protein

bovine FBP, sequence (P02702 20-234): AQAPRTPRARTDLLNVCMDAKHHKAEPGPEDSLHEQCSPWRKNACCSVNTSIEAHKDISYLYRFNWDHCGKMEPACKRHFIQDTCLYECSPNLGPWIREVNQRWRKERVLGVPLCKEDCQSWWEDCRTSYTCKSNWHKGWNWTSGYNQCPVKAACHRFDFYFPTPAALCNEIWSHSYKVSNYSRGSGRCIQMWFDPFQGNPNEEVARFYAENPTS

Compound `Cc1nc2ccc(CN(C)c3ccc(C(=O)NC(CCC(=O)O)C(=O)O)s3)cc2c(=O)[nH]1` (stereo not shown) has a pKd (bovine FBP; [3]) of 6.27.

With `Nc1nc(O)c2c(n1)NCC(CCc1ccc(C(=O)NC(CCC(=O)O)C(=O)O)s1)C2` (stereo not shown) the pKd (bovine FBP; [3]) was 7.26.

With `Nc1nc2c(c(=O)[nH]1)CC(CCc1ccc(C(=O)N[C@@H](CCC(=O)O)C(=O)O)cc1)CN2` (stereo partly shown) [Lometrexol, 5,10-dideazatetrahydrofolic acid] the “Antitumor Activity (% Inhibition)” value ([1]; Lometrexol 0.0625 mg/kg i.p. once a day for five days, two weeks on folate-free diet, assessed day ten) was 0%, the “Antitumor Activity (% Inhibition)” value ([1]; Lometrexol 0.125 mg/kg i.p. once a day for five days, folate-free diet plus 0.0003% folate in drinking water, day ten) was 13% and the “Antitumor Activity (% Inhibition)” value ([1]; Lometrexol 0.125 mg/kg i.p. once a day for five days, two weeks on folate-free diet, assessed day ten) was 0%. For the same compound, the “Antitumor Activity (% Inhibition)” value ([1]; Lometrexol 0.25 mg/kg i.p. once a day for five days, folate-free diet plus 0.0003% folate in drinking water, day ten) was 26%, the “Antitumor Activity (% Inhibition)” value ([1]; Lometrexol 0.25 mg/kg i.p. once a day for five days, two weeks on folate-free diet, assessed day ten) was 21% and the “Antitumor Activity (% Inhibition)” value ([1]; Lometrexol 0.5 mg/kg i.p. once a day for five days, folate-free diet plus 0.0003% folate in drinking water, day ten) was 48%. The “Antitumor Activity (% Inhibition)” value ([1]; Lometrexol 0.5 mg/kg i.p. once a day for five days, two weeks on folate-free diet, assessed day ten) was 88%, the “Antitumor Activity (% Inhibition)” value ([1]; Lometrexol 1.0 mg/kg i.p. once a day for five days, folate-free diet plus 0.0003% folate in drinking water, day ten) was 97% and the “Antitumor Activity (% Inhibition)” value ([1]; Lometrexol 1.0 mg/kg i.p. once a day for five days, two weeks on folate-free diet, assessed day ten) was 100%. The “Antitumor Activity (% Inhibition)” value ([1]; Lometrexol 2.0 mg/kg i.p. once a day for five days, folate-free diet plus 0.0003% folate in drinking water, day ten) was 98%, the “Antitumor Activity (% Inhibition)” value ([1]; Lometrexol 4.0 mg/kg i.p. once a day for five days, folate-free diet plus 0.0003% folate in drinking water, day ten) was 99% and the “Antitumor Activity (% Inhibition)” value ([1]; Lometrexol 6.25 mg/kg i.p. once a day for five days, folate-free diet plus 0.003% folate in drinking water, day ten) was 91%. For the same compound, the “Antitumor Activity (% Inhibition)” value ([1]; Lometrexol 12.5 mg/kg i.p. once a day for five days, folate-free diet plus 0.003% folate in drinking water, day ten) was 89%, the “Antitumor Activity (% Inhibition)” value ([1]; Lometrexol 25 mg/kg i.p. once a day for five days, folate-free diet plus 0.003% folate in drinking water, day ten) was 97% and the “Antitumor Activity (% Inhibition)” value ([1]; Lometrexol 50 mg/kg i.p. once a day for five days, folate-free diet plus 0.003% folate in drinking water, day ten) was 96%. The “clinical evidence of disease” value [2] was “no clinical evidence of disease”, the pKd (bovine FBP) was 7.66 and the “Toxicity (Mice Dead/Total Mice)” value (C3H Mice; Lometrexol 0.0625 mg/kg i.p. once a day for five days, two weeks on folate-free diet) was 0/10. For the same compound, the “Toxicity (Mice Dead/Total Mice)” value (C3H Mice; Lometrexol 0.125 mg/kg i.p. once a day for five days, folate-free diet plus 0.0003% folate in drinking water) was 0/10, the “Toxicity (Mice Dead/Total Mice)” value (C3H Mice; Lometrexol 0.125 mg/kg i.p. once a day for five days, two weeks on folate-free diet) was 0/10 and the “Toxicity (Mice Dead/Total Mice)” value (C3H Mice; Lometrexol 0.25 mg/kg i.p. once a day for five days, folate-free diet plus 0.0003% folate in drinking water) was 0/10. For the same compound, the “Toxicity (Mice Dead/Total Mice)” value (C3H Mice; Lometrexol 0.25 mg/kg i.p. once a day for five days, two weeks on folate-free diet) was 0/10, the “Toxicity (Mice Dead/Total Mice)” value (C3H Mice; Lometrexol 0.5 mg/kg i.p. once a day for five days, folate-free diet plus 0.0003% folate in drinking water) was 0/10 and the “Toxicity (Mice Dead/Total Mice)” value (C3H Mice; Lometrexol 0.5 mg/kg i.p. once a day for five days, two weeks on folate-free diet) was 0/10. For the same compound, the “Toxicity (Mice Dead/Total Mice)” value (C3H Mice; Lometrexol 1.0 mg/kg i.p. once a day for five days, folate-free diet plus 0.0003% folate in drinking water) was 0/10, the “Toxicity (Mice Dead/Total Mice)” value (C3H Mice; Lometrexol 1.0 mg/kg i.p. once a day for five days, two weeks on folate-free diet) was 8/10 and the “Toxicity (Mice Dead/Total Mice)” value (C3H Mice; Lometrexol 1.0 mg/kg i.p. once a day for five days, two weeks on folate-free diet, listed as lometrexol) was “lethal to the majority of the mice”. The “Toxicity (Mice Dead/Total Mice)” value (C3H Mice; Lometrexol 2.0 mg/kg i.p. once a day for five days, folate-free diet plus 0.0003% folate in drinking water) was 0/10, the “Toxicity (Mice Dead/Total Mice)” value (C3H Mice; Lometrexol 4.0 mg/kg i.p. once a day for five days, folate-free diet plus 0.0003% folate in drinking water) was 4/10 and the “Toxicity (Mice Dead/Total Mice)” value (C3H Mice; Lometrexol 6.25 mg/kg i.p. once a day for five days, folate-free diet plus 0.003% folate in drinking water) was 0/10. For the same compound, the “Toxicity (Mice Dead/Total Mice)” value (C3H Mice; Lometrexol 12.5 mg/kg i.p. once a day for five days, folate-free diet plus 0.003% folate in drinking water) was 0/10, the “Toxicity (Mice Dead/Total Mice)” value (C3H Mice; Lometrexol 25 mg/kg i.p. once a day for five days, folate-free diet plus 0.003% folate in drinking water) was 0/10 and the “Toxicity (Mice Dead/Total Mice)” value (C3H Mice; Lometrexol 50 mg/kg i.p. once a day for five days, folate-free diet plus 0.003% folate in drinking water) was 0/10.

`Nc1nc(O)c2c(n1)NCC(CCC1CCC(C(=O)NC(CCC(=O)O)C(=O)O)CC1)C2` (stereo not shown) showed a pKd (bovine FBP; [3]) of 7.24.

`Nc1nc(O)c2c(n1)NCC(CCc1ccc(C(=O)NC(CCC(=O)O)C(=O)O)o1)C2` (stereo not shown) was tested, and the pKd (bovine FBP; [3]) was 6.24.

Work on `Nc1nc2ncc(CNc3ccc(C(=O)N[C@@H](CCC(=O)O)C(=O)O)cc3)nc2c(=O)[nH]1` [Folic acid] yielded a Kd (bovine FBP; folate binding protein, read-out: Binding Constant (converted)) of 4.08 nM.

Compound `C#CCN(Cc1ccc2[nH]c(N)nc(=O)c2c1)c1ccc(C(=O)NC(CCC(=O)O)C(=O)O)cc1` (stereo not shown) has a pKd (bovine FBP; [3]) of 7.60.

`Nc1nc(O)c2c(n1)NCC(CCCc1ccc(C(=O)NC(CCC(=O)O)C(=O)O)cc1)C2` (stereo not shown) [n = 3 X = H] showed a pKd (bovine FBP) of 7.56.
